In brackets after ≈: the same amount, converted by molar mass. Like-named read-outs stand apart in the source and are kept apart here.
Experiments:
Assay type in all cases: cell-based
[1] = tested on: C. pneumoniae AR39, ATCC53592; assay: Anti-mycoplasma MIC; conditions: Chlamydia pneumoniae
Procedure: (§1) The antimycoplasma activity was quantified using the […]. Retapamulin was used as a positive control to test the minimum inhibitory concentration of 3H-imidazo[4,5-C]pyridine pleuromutilin onium salt derivatives.
(§2) (1) Preparation of KM2 medium: Weigh 38.9 g of KM2 medium, add it to 800 mL of distilled water, boil to dissolve, sterilize under high pressure at 115° C. for 20 min, and set aside.
(§3) (2) Preparation of bacterial stock solution: Take 0.5 mL of Mhp-J^a, Mhp-LH^b, Mhr-BTS-7^c, MG-R^d, MS-WVU1853^e, MP-M129^f, CP-AR-39^g, CP-CWL-029^h, CP-TW-183^i, MH-PG-21^j, MG-G37^k cultured to the logarithmic phase and transfer it to 4.5 mL of KM2 liquid culture medium. When the culture medium turns yellow, divide each bacterium into 0.5 mL per tube and store it at −70° C. as bacterial stock solution.
(§4) (3) Determination of bacterial titer (color change unit, CCU): Take out the bacterial stock solution stored at −70° C., melt and balance to room temperature, add 0.18 mL KM2 medium to each well of the middle 4 rows of the 96-well plate (i.e. 4 parallels), take 0.02 mL and add it to the first column, dilute 10 times to 10^−11, and set up a negative control containing only KM2 medium (12th column). After sealing, put it in a 37° C. incubator and observe the results every day. The highest dilution at which the color of the medium changes is the CCU/mL of the strain.
(§5) Take an appropriate amount of seed bacterial solution and dilute it to 10^4 CCU/mL in turn according to its titer. Add drugs of each dilution in a 96-well plate in turn, and then add an equal amount of diluted bacterial solution. Set 200 μL of diluted mycoplasma bacterial solution as a positive control, 200 μL of KM2 liquid culture medium as a negative control, and set a solvent control group (10 μL of drug solvent+190 μL of mycoplasma bacterial solution). Each experiment is set up in 3 parallels. After all culture plates are sealed, they are cultured at 37° C., observed daily, and the final MIC value is recorded.

[2] = tested on: M. hominis PG-21, ATCC23114; assay: Anti-mycoplasma MIC; conditions: Metamycoplasma hominis
Procedure: as §1, §2, §3, §4, §5

[3] = tested on: M. hyorhinis BTS-7, NCTC10130; assay: Anti-mycoplasma MIC; conditions: Mesomycoplasma hyorhinis
Procedure: as §1, §2, §3, §4, §5

[4] = tested on: M. hyopneumoniae J, NCTC10110; assay: Anti-mycoplasma MIC; conditions: Mesomycoplasma hyopneumoniae
Procedure: as §1, §2, §3, §4, §5

[5] = tested on: M. galliscepticum, NCTC10115; assay: Anti-mycoplasma MIC; conditions: read-out: Antimycoplasma activity (MIC) MG-R^d
Procedure: as §1, §2, §3, §4, §5

[6] = tested on: C. pneumoniae TW183, VR-2282; assay: Anti-mycoplasma MIC; conditions: Chlamydia pneumoniae, read-out: Antimycoplasma activity (MIC) CP-TW-183^i
Procedure: as §1, §2, §3, §4, §5

[7] = tested on: M. synoviae WVU1853, NCTC10124; assay: Anti-mycoplasma MIC; conditions: Mycoplasmopsis synoviae
Procedure: as §1, §2, §3, §4, §5

[8] = tested on: M. genitalium G37, ATCC33530; assay: Anti-mycoplasma MIC; conditions: Mycoplasmoides genitalium
Procedure: as §1, §2, §3, §4, §5

[9] = tested on: M. pneumoniae M129, ATCC29342; assay: Anti-mycoplasma MIC; conditions: Mycoplasmoides pneumoniae
Procedure: as §1, §2, §3, §4, §5

[10] = tested on: vancomycin-resistant Enterococcus-80; assay: MIC, clinical isolates
Procedure: (§6) The minimum inhibitory concentration of 3H-imidazo[4,5-C]pyridine pleuromutilin onium salt derivatives against the tested pathogenic microorganisms were determined by broth microdilution method, with valnemulin and retapamulin as positive controls.
(§7) The experimental strains included resistant Gram-positive bacteria: Methicillin-resistant S. aureus ATCC 33591; Methicillin-resistant S. aureus ATCC 43300; S. aureus ATCC 29213; Methicillin-resistant S. epidermidis ATCC 51625. Resistant Gram-negative bacteria: A. baumannii ATCC 19606; S. enterica ATCC14028; E. coli ATCC 25922; E. coli CMCC 44103. 9 clinically isolated resistant strains: MRSA-171; MRSA-575; MRSA-206; MRSA-222; MRSA-596; VRE-80; MDR-PA-126; MDR-KP-893; CR-AB-882.
(§8) (1) Preparation of MHB medium: Weigh 18.0 g of MHB medium pre-made powder, add it to 1 L of distilled water, heat and boil until completely dissolved, divide it into conical bottles, sterilize it by high pressure at 121° C. for 15 minutes, and set aside.
(§9) (2) Cultivate the experimental strain to the logarithmic growth phase: Under sterile conditions, inoculate the experimental strain into fresh MHB medium and culture it in a 37° C. constant temperature and humidity incubator for 16-24 hours. Adjust the bacterial solution concentration to 1.5×10^8 CFU/mL and then dilute it 200 times for later use.
(§10) (3) Preparation of storage solution: Weigh the sample to be tested, dissolve it in 1% DMSO solution, and prepare a storage solution with a concentration of 2560 μg/mL; weigh the positive control, dissolve it in sterile distilled water, and prepare a storage solution with a concentration of 2560 μg/mL.
(§11) (4) Preparation of bacterial suspension: Under sterile conditions, the experimental strain cultured to the logarithmic growth phase was calibrated to a 0.5 McFarland unit turbidity standard using MHB medium and then diluted at a ratio of 1:200 to prepare a bacterial suspension with a concentration of 5×10^5 CFU/mL for later use.
(§12) (5) Determination of MIC by two-fold microdilution method: Take a sterile 96-well plate, add 10 μL of the test compound at a concentration of 2560 μg/mL, and perform serial dilutions by the two-fold dilution method. At the same time, set up a negative control group without drug. Then add 190 μL of diluted bacterial solution to each well, so that the final bacterial solution concentration in each well is 5×10^5 CFU/mL, and incubate in a 37° C. constant temperature and humidity chamber for 24 hours.

[11] = tested on: multidrug-resistant Pseudomonas aeruginosa-126; assay: MIC, clinical isolates
Procedure: as §6, §7, §8, §9, §10, §11, §12

[12] = tested on: multidrug-resistant Klebsiella pneumoniae-893; assay: MIC, clinical isolates; conditions: clinical isolate MDR-KP-893
Procedure: as §6, §7, §8, §9, §10, §11, §12

C=C[C@]1(C)C[C@@H](OC(=O)CSc2nc3cc[n+](Cc4ccc(C)cc4)cc3[nH]2)[C@]2(C)[C@H](C)CC[C@]3(CCC(=O)[C@H]32)[C@@H](C)[C@@H]1O [Compound i, 5-(4-methylbenzyl)-2-((2-(((3aR,4R,5R,7S,8S,9R,9aS,12R)-8-hydroxy-4,7,9,12-tetramethyl-3-oxo-7-vinyldecahydro-4,9a-propancyclopenta[8]cyclo-5-yl)oxy)-2-oxoethyl)thio)-3H-imidazo[4,5-C]pyridine-5-ium]
MIC ([1]; ATCC53592, C. pneumoniae AR39, read-out: Antimycoplasma activity (MIC) CP-AR-39^g): 0.002 µg/mL | MIC ([2]; ATCC23114, M. hominis PG-21, read-out: Antimycoplasma activity (MIC) MH-PG-21^j): 0.015 µg/mL | MIC ([3]; NCTC10130, M. hyorhinis BTS-7, read-out: Antimycoplasma activity (MIC) Mhr-BTS-7^c): 0.03 µg/mL | MIC ([4]; NCTC10110, M. hyopneumoniae J, read-out: Antimycoplasma activity (MIC) Mhp-J^a): 0.02 µg/mL | MIC ([5]; M. galliscepticum): 0.04 µg/mL | MIC ([6]; C. pneumoniae TW183): 0.01 µg/mL | MIC ([7]; NCTC10124, M. synoviae WVU1853, read-out: Antimycoplasma activity (MIC) MS-WVU1853^e): 0.015 µg/mL | MIC ([8]; ATCC33530, M. genitalium G37, read-out: Antimycoplasma activity (MIC) MG-G37^k): 0.03 µg/mL | MIC ([9]; ATCC29342, M. pneumoniae M129, read-out: Antimycoplasma activity (MIC) MP-M129^f): 0.008 µg/mL | MIC ([10]; clinical isolate VRE-80, read-out: Antibacterial activity (MIC) VRE^g): 4 µg/mL | MIC ([11]; clinical isolate MDR-PA-126, read-out: Antibacterial activity (MIC) MDR-PA^h): 4 µg/mL | Antibacterial activity (MIC) MDR-KP^i [12]: 2 µg/mL

C=C[C@]1(C)C[C@@H](OC(=O)CS[C@@H]2C[C@H]3CC[C@@H](C2)N3C)[C@]2(C)[C@H](C)CC[C@]3(CCC(=O)[C@H]32)[C@@H](C)[C@@H]1O [Retapamulin, reference compound]
MIC ([1]; ATCC53592, read-out: Antimycoplasma activity (MIC) CP-AR-39^g): 0.125 µg/mL (≈ 0.241 µM) | MIC ([2]; ATCC23114, read-out: Antimycoplasma activity (MIC) MH-PG-21^j): 0.25 µg/mL (≈ 0.483 µM) | MIC ([3]; NCTC10130, read-out: Antimycoplasma activity (MIC) Mhr-BTS-7^c): 0.03 µg/mL (≈ 0.0579 µM) | MIC ([4]; NCTC10110, read-out: Antimycoplasma activity (MIC) Mhp-J^a): 0.03 µg/mL (≈ 0.0579 µM) | MIC [5]: 0.125 µg/mL (≈ 0.241 µM) | MIC [6]: 0.03 µg/mL (≈ 0.0579 µM) | MIC ([7]; NCTC10124, read-out: Antimycoplasma activity (MIC) MS-WVU1853^e): 2 µg/mL (≈ 3.86 µM) | MIC ([8]; ATCC33530, read-out: Antimycoplasma activity (MIC) MG-G37^k): 0.03 µg/mL (≈ 0.0579 µM) | MIC ([9]; ATCC29342, read-out: Antimycoplasma activity (MIC) MP-M129^f): 0.015 µg/mL (≈ 0.029 µM) | MIC ([10]; VRE, read-out: Antibacterial activity (MIC) VRE^g): > 128 µg/mL | MIC ([11]; read-out: Antibacterial activity (MIC) MDR-PA^h): 64 µg/mL (≈ 124 µM) | Antibacterial activity (MIC) MDR-KP^i [12]: 128 µg/mL

— US12275734B1, “Pleuromutilin onium salt derivative containing a 3H-imidazo[4,5-c]pyridine side chain, and a preparation method and application thereof” (SHAANXI UNIVERSITY OF SCIENCE AND TECHNOLOGY, priority 2024, dated 2025)
